System: HCV replicon (wild type NS3-NS5B regions of HCV type 1b) in Huh-7 luc/neo cells
Test: HCV replicon assay (Huh-Luc cells, luciferase read-out)
Format: cell-based
Details: Hepatitis C virus, Huh-7, 72 h, three days incubation, luciferase activity
From the text: The in vitro antiviral activity against HCV of the compounds of formula I can be tested in a cellular HCV replicon system based on Lohmann et al. (1999) Science 285:110-113, with the further modifications described by Krieger et al. (2001) Journal of Virology 75: 4614-4624 (incorporated herein by reference), which is further exemplified in the examples section. This model, while not a complete infection model for HCV, is widely accepted as the most robust and efficient model of autonomous HCV RNA replication currently available. It will be appreciated that it is important to distinguish between compounds that specifically interfere with HCV functions from those that exert cytotoxic or cytostatic effects in the HCV replicon model, and as a consequence cause a decrease in HCV RNA or linked reporter enzyme concentration. Assays are known in the field for the evaluation of cellular cytotoxicity based for example on the activity of mitochondrial enzymes using fluorogenic redox dyes such as resazurin. Furthermore, cellular counter screens exist for the evaluation of non-selective inhibition of linked reporter gene activity, such as firefly luciferase. Appropriate cell types can be equipped by stable transfection with a luciferase reporter gene whose expression is dependent on a constitutively active gene promoter, and such cells can be used as a counter-screen to eliminate non-selective inhibitors.
The compounds of formula (I) were examined for inhibitory activity in the HCV replicon. This cellular assay is based on a bicistronic expression construct, as described by Lohmann et al. (1999) Science vol. 285 pp. 110-113 with modifications described by Krieger et al. (2001) Journal of Virology 75: 4614-4624, in a multi-target screening strategy.
In essence, the method was as follows:
The assay utilized the stably transfected cell line Huh-7 luc/neo (hereafter referred to as Huh-Luc). This cell line harbors an RNA encoding a bicistronic expression construct comprising the wild type NS3-NS5B regions of HCV type 1b translated from an Internal Ribosome Entry Site (IRES) from encephalomyocarditis virus (EMCV), preceded by a reporter portion (FfL-luciferase), and a selectable marker portion (neo^R, neomycine phosphotransferase). The construct is flanked by 5′ and 3′ NTRs (non-translated regions) from HCV type 1b. Continued culture of the replicon cells in the presence of G418 (neo^R) is dependent on the replication of the HCV RNA. The stably transfected replicon cells that express HCV RNA, which replicates autonomously and to high levels, encoding inter alia luciferase, were used for screening the antiviral compounds.
The replicon cells were plated in 384 well plates in the presence of the test and control compounds which were added in various concentrations. Following an incubation of three days, HCV replication was measured by assaying luciferase activity (using standard luciferase assay substrates and reagents and a Perkin Elmer ViewLux™ ultraHTS microplate imager). Replicon cells in the control cultures have high luciferase expression in the absence of any inhibitor. The inhibitory activity of the compound on luciferase activity was monitored on the Huh-Luc cells, enabling a dose-response curve for each test compound. EC50 values were then calculated, which represent the amount of compound required to decrease the level of detected luciferase activity by 50%, or more specifically, to reduce the ability of the genetically linked HCV replicon RNA to replicate.

Compound	EC50 [nM]
O=C(Cc1cccnc1)N1CCC[C@H]1c1ncc(C#Cc2ccc(-c3cnc([C@@H]4CCCN4C(=O)Cc4cccnc4)[nH]3)cc2)[nH]1 [Compound 2]	1.5
O=C(Nc1ccccc1)N1CCC[C@H]1c1ncc(C#Cc2ccc(-c3cnc([C@@H]4CCCN4C(=O)Nc4ccccc4)[nH]3)cc2)[nH]1 [Compound 3]	810
O=C(CC1CCCCC1)N1CCC[C@H]1c1ncc(C#Cc2ccc(-c3cnc([C@@H]4CCCN4C(=O)CC4CCCCC4)[nH]3)cc2)[nH]1 [Compound 4]	130
CC(C)[C@@H](C(=O)N1CCC[C@H]1c1ncc(C#Cc2ccc(-c3cnc([C@@H]4CCCN4C(=O)[C@H](C(C)C)N(C)C)[nH]3)cc2)[nH]1)N(C)C [Compound 21]	36
COC(=O)N[C@H](C(=O)N1CCC[C@H]1c1ncc(C#Cc2ccc(-c3cnc([C@@H]4CCCN4C(=O)[C@@H](NC(=O)OC)C(C)C)[nH]3)cc2)[nH]1)C(C)C [Compound 28]	0.036
CC(=O)N[C@@H](C(=O)N1CCC[C@H]1c1ncc(C#Cc2ccc(-c3cnc([C@@H]4CCCN4C(=O)[C@H](NC(C)=O)c4ccccc4)[nH]3)cc2)[nH]1)c1ccccc1 [Compound 32]	< 0.48
CNC(=O)N[C@H](C(=O)N1CCC[C@H]1c1ncc(C#Cc2ccc(-c3cnc([C@@H]4CCCN4C(=O)[C@@H](NC(=O)NC)C(C)C)[nH]3)cc2)[nH]1)C(C)C [Compound 36]	0.69
O=C([C@@H](c1ccccc1)N1CCCCC1)N1CCC[C@H]1c1ncc(C#Cc2ccc(-c3cnc([C@@H]4CCCN4C(=O)[C@@H](c4ccccc4)N4CCCCC4)[nH]3)cc2)[nH]1 [Compound 37]	0.03
